Source: patent US20150202172A1, “NOVEL METHOD OF USE” (Glaxo Group Limited, priority 2014, published 2015)
Where “and” joins values, the source holds several entries; their conditions need not be identical. Equal values may be shown once.

Assays:
[1] = tested on: patients with Severe Refractory Chronic Hand Eczema (CHE); assay: Clinical trial simulation (longitudinal dose response model): PGA score at end of treatment; type: in vivo, human; details: 30 mg
Procedure: (§1) In clinical studies, efficacy was measured using PGA score and modified total lesion signs and symptoms (mTLSS) at various times during and post treatment. PGA scores over time were chosen for this analysis because PGA scores were the primary endpoint in the Phase III studies and were collected at more time points than the mTLSS. The PGA was graded according to 5 point scale (clear, almost clear, mild disease, moderate disease, severe disease). The mTLSS severity score was graded 0 to 3 for 7 parameters.
(§2) For the Physician Global Assessment (PGA), a general description of CHE severity, which is a well recognized scale is shown below in Table 7 for clarification purposes.

[2] = tested on: patients with Severe Refractory Chronic Hand Eczema (CHE); assay: Clinical trial simulation (longitudinal dose response model): no relapse (PGA ≠ 5) by 6 months post treatment; type: in vivo, human
Procedure: In reviewing the data to make these determinations, all available PGA scores observed (not including scores derived from missing data such as last observation carried forward (LOCF) including those at baseline, every 4 weeks during treatment, and every 4 to 8 weeks after cessation of treatment for up to 72 weeks post treatment from the various clinical trials were used to develop a longitudinal dose response model.
as §1, §2

## CC1=C(/C=C/C(C)=C\C=C\C(C)=C\C(=O)O)C(C)(C)CCC1 [Alitretinoin, 9-cis isomer of retinoic acid (RA)]
[1]; age 30 yr
  Proportion of Responders (PGA = 1 or 2) at End of Treatment: 33.9 (26, 42) %
  Proportion of Subjects (PGA = 2) at End of Treatment: 22.9 (16, 30) %
  Proportion of Subjects (PGA = 3) at End of Treatment: 28.4 (21, 36) %
[1]; age 50 yr
  Proportion of Responders (PGA = 1 or 2) at End of Treatment: 41.1 (33, 49) %
  Proportion of Subjects (PGA = 1) at End of Treatment: 14.9 (9, 21) %
  Proportion of Subjects (PGA = 2) at End of Treatment: 26.3 (20, 34) %
  Proportion of Subjects (PGA = 3) at End of Treatment: 28.3 (20, 35) %
[1]; age 65 yr
  Proportion of Responders (PGA = 1 or 2) at End of Treatment: 48.0 (40, 56) %
  Proportion of Subjects (PGA = 1) at End of Treatment: 19.3 (13, 26) %
  Proportion of Subjects (PGA = 2) at End of Treatment: 28.7 (22, 36) %
  Proportion of Subjects (PGA = 3) at End of Treatment: 27.1 (19, 35) %
[1]; age 75 yr
  Proportion of Responders (PGA = 1 or 2) at End of Treatment: 53.0 (45, 62) %
  Proportion of Subjects (PGA = 1) at End of Treatment: 22.8 (16, 30) %
  Proportion of Subjects (PGA = 2) at End of Treatment: 30.2 (23, 37) %
  Proportion of Subjects (PGA = 3) at End of Treatment: 25.8 (18, 33) %
[1]; duration of treatment 4 weeks
  Proportion of Responders (PGA = 1 or 2) at End of Treatment: 4.3 (1, 8) %
  Proportion of Subjects (PGA = 1) at End of Treatment: 1.3 (1, 2) %
  Proportion of Subjects (PGA = 2) at End of Treatment: 3.7 (1, 7) %
  Proportion of Subjects (PGA = 3) at End of Treatment: 10.5 (5, 16) %
[1]; duration of treatment 8 weeks
  Proportion of Responders (PGA = 1 or 2) at End of Treatment: 15.2 (10, 21) %
  Proportion of Subjects (PGA = 1) at End of Treatment: 3.6 (1, 7) %
  Proportion of Subjects (PGA = 2) at End of Treatment: 11.7 (7, 17) %
  Proportion of Subjects (PGA = 3) at End of Treatment: 22.5 (16, 29) %
[1]; duration of treatment 12 weeks
  Proportion of Responders (PGA = 1 or 2) at End of Treatment: 23.7 (16, 31) %
  Proportion of Subjects (PGA = 1) at End of Treatment: 6.6 (3, 11) %
  Proportion of Subjects (PGA = 2) at End of Treatment: 17.1 (11, 24) %
  Proportion of Subjects (PGA = 3) at End of Treatment: 26.4 (19, 34) %
[1]; duration of treatment 16 weeks
  Proportion of Responders (PGA = 1 or 2) at End of Treatment: 30.2 (23, 38) %
  Proportion of Subjects (PGA = 1) at End of Treatment: 9.2 (5, 14) %
  Proportion of Subjects (PGA = 2) at End of Treatment: 21.0 (14, 28) %
  Proportion of Subjects (PGA = 3) at End of Treatment: 27.7 (21, 35) %
[1]; duration of treatment 20 weeks
  Proportion of Responders (PGA = 1 or 2) at End of Treatment: 35.4 (28, 43) %
  Proportion of Subjects (PGA = 1) at End of Treatment: 11.9 (7, 17) %
  Proportion of Subjects (PGA = 2) at End of Treatment: 23.6 (17, 31) %
  Proportion of Subjects (PGA = 3) at End of Treatment: 28.0 (21, 35) %
[1]; duration of treatment 24 weeks
  Proportion of Responders (PGA = 1 or 2) at End of Treatment: 40.4 (33, 48) %
  Proportion of Subjects (PGA = 1) at End of Treatment: 14.7 (9, 21) %
  Proportion of Subjects (PGA = 2) at End of Treatment: 25.7 (19, 33) %
  Proportion of Subjects (PGA = 3) at End of Treatment: 28.2 (21, 35) %
[2]; PGA score=1 or 2
  subjects who responded (PGA score=1 or 2) who would not return to severe disease within 6 months post treatment: > 83%
[2]; PGA=1 or PGA=2 at end of treatment (individually)
  difference between a 75 year old and 30 year old in the proportion of patients who did not relapse (PGA score≠5) 6 months after treatment: 10%
[2]; age 30 yr, 30 mg
  Proportion of Responders Who Did Not Relapse (PGA ≠ 5) 6 months Post Treatment: 79% and 78.7 (67, 90) %
  Proportion of Subjects with PGA = 1 at end of treatment who did not relapse (PGA ≠ 5) 6 Months Post Treatment: 77.7 (56, 92) %
